Experiments:
[1] = molecular target: T1, Growth Hormone, Secretagogue (GHS, Ghrelin) (Homo sapiens, UniProt Q92847); assay: Radioligand binding panel (Table S1); details: 10 μM T1-11, n 2
T1 construct: purchased MDS Pharma Services Taiwan

[2] = molecular target: T2, Benzodiazepine, Peripheral (Rattus norvegicus, UniProt P16257); assay: Radioligand binding panel (Table S1); details: 10 μM T1-11, n 2
T2 construct: purchased MDS Pharma Services Taiwan

Melatonin MT1 = molecular target: T3, Melatonin MT1 (Homo sapiens, UniProt P48039); assay: Radioligand binding panel (Table S1); details: 10 μM T1-11, n 2
T3 construct: purchased MDS Pharma Services Taiwan

Dopamine D4.2 = molecular target: T4, Dopamine D4.2 (Homo sapiens, UniProt P21917, DEL265-296); assay: Radioligand binding panel (Table S1); details: 10 μM T1-11, n 2
T4 construct: purchased MDS Pharma Services Taiwan

Vanilloid = molecular target: T5, Vanilloid (Rattus norvegicus, UniProt O35433); assay: Radioligand binding panel (Table S1); details: 10 μM T1-11, n 2
T5 construct: purchased MDS Pharma Services Taiwan

Estrogen ERα = molecular target: T6, Estrogen ERα (Homo sapiens, UniProt P03372); assay: Radioligand binding panel (Table S1); details: 10 μM T1-11, n 2
T6 construct: purchased MDS Pharma Services Taiwan

Opiate δ (OP1, DOP) = molecular target: T7, Opiate δ (OP1, DOP) (Homo sapiens, UniProt P41143); assay: Radioligand binding panel (Table S1); details: 10 μM T1-11, n 2
T7 construct: purchased MDS Pharma Services Taiwan

[3] = molecular target: T8, Serotonin (5-Hydroxytryptamine) 5-HT4 (Cavia porcellus, UniProt O70528); assay: Radioligand binding panel (Table S1); parameters: species or system guinea pig; details: 10 μM T1-11, n 2
T8 construct: purchased MDS Pharma Services Taiwan

Purinergic P 2X = assay: Radioligand binding panel (Table S1); parameters: species or system rabbit; details: 10 μM T1-11, n 2
[4] = test system: Glycine, Strychnine-Sensitive; assay: Radioligand binding panel (Table S1); parameters: species or system rat; details: 10 μM T1-11, n 2
Adrenergic β 3 = molecular target: T9, Adrenergic β 3 (Homo sapiens, UniProt P13945); assay: Radioligand binding panel (Table S1); details: 10 μM T1-11, n 2
T9 construct: purchased MDS Pharma Services Taiwan

BDNF = assay: Cortical BDNF transcript, quantitative RT-PCR; assay type: in vivo; details: R6/2 mice, 0.05 mg/ml in drinking water
Procedure: Total RNA was isolated from the cortex of the indicated mice using the TriReagent kit (Molecular Research Center, Cincinnati, OH, USA), treated with RNase-free DNase (RQ1; Promega) to remove potential contamination by genomic DNA, and transcribed into complementary (c)DNA using Superscript* II reverse transcriptase. A real-time quantitative PCR was performed using a TaqMan kit (PE Applied Biosystems, Foster City, CA, USA) on a TaqMan ABI 7700 Sequence Detection System (PE Applied Biosystems) using heat-activated TaqDNA polymerase (Amplitaq Gold; PE Applied Biosystems). The PCR mixtures were incubated at 50°C for 2 min and 95°C for 10 min, and then 40 PCR cycles were conducted (95°C for 15 s and 65°C for 1 min). The sequences of primers are listed below: for BDNF (the target gene), 5′-[…]-3′ and 5′-[…]-3′; and for GAPDH (the reference gene), 5′[…]-3′ and 5′-[…]-3′. Independent reverse-transcription PCRs were performed using the same cDNA for both the indicated target gene and reference gene (GAPDH). […] Data were analyzed using ABI 7700 operating software to determine the threshold cycle (CT) above the background for each reaction. The relative transcript amount of the target gene, which was calculated using standard curves of serial RNA dilutions, was normalized to that of GAPDH of the same RNA.

Interleukin IL-6 = molecular target: T10, Interleukin IL-6 (Homo sapiens, UniProt P08887); assay: Radioligand binding panel (Table S1); details: 10 μM T1-11, n 2
T10 construct: purchased MDS Pharma Services Taiwan

Bombesin BB2 = molecular target: T11, Bombesin BB2 (Homo sapiens, UniProt P30550); assay: Radioligand binding panel (Table S1); details: 10 μM T1-11, n 2
T11 construct: purchased MDS Pharma Services Taiwan

[5] = test system: Adrenergic α 2, Non-Selective; assay: Radioligand binding panel (Table S1); parameters: species or system rat; details: 10 μM T1-11, n 2
hERG potassium channel = molecular target: T12, hERG potassium channel (Homo sapiens, UniProt Q12809); assay: Radioligand binding panel (Table S1); details: 10 μM T1-11, n 2
T12 construct: purchased MDS Pharma Services Taiwan

Phosphodiesterase PDE1 = assay: Radioligand binding panel (Table S1); parameters: species or system human; details: 10 μM T1-11, n 2
Cyclooxygenase COX-2 = molecular target: T13, Cyclooxygenase COX-2 (Homo sapiens, UniProt P35354); assay: Radioligand binding panel (Table S1); details: 10 μM T1-11, n 2
T13 construct: purchased MDS Pharma Services Taiwan

[6] = molecular target: T14, Prostanoid, Thromboxane A2 (TP) (Homo sapiens, UniProt P21731); assay: Radioligand binding panel (Table S1); details: 10 μM T1-11, n 2
T14 construct: purchased MDS Pharma Services Taiwan

Calcium Channel N-Type = molecular target: T15, Calcium Channel N-Type (Rattus norvegicus, UniProt Q02294); assay: Radioligand binding panel (Table S1); details: 10 μM T1-11, n 2
T15 construct: purchased MDS Pharma Services Taiwan

Adrenergic α 1B = molecular target: T16, Adrenergic α 1B (Rattus norvegicus, UniProt P15823); assay: Radioligand binding panel (Table S1); details: 10 μM T1-11, n 2
T16 construct: purchased MDS Pharma Services Taiwan

[7] = test system: Adrenergic α 1, Non-Selective; assay: Radioligand binding panel (Table S1); parameters: species or system rat; details: 10 μM T1-11, n 2
A1 adenosine receptor = molecular target: T17, A1 adenosine receptor (Homo sapiens, UniProt P30542); assay: Radioligand binding assay
T17 construct: MDS Pharma Services Taiwan
T17 sequence (P30542 1-326): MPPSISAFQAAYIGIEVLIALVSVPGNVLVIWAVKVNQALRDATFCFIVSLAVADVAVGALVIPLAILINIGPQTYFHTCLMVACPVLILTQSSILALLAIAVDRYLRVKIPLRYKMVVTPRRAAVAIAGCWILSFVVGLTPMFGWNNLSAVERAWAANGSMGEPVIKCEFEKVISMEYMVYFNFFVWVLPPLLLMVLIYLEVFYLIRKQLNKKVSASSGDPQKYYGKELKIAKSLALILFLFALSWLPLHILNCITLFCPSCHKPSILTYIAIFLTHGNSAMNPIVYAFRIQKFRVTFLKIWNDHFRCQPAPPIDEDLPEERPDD

Chemokine CXCR2 (IL-8RB) = molecular target: T18, Chemokine CXCR2 (IL-8RB) (Homo sapiens, UniProt P25025); assay: Radioligand binding panel (Table S1); details: 10 μM T1-11, n 2
T18 construct: purchased MDS Pharma Services Taiwan

Rolipram = assay: Radioligand binding panel (Table S1); parameters: species or system rat; details: 10 μM T1-11, n 2
Adrenergic α 1A = molecular target: T19, Adrenergic α 1A (Rattus norvegicus, UniProt P43140); assay: Radioligand binding panel (Table S1); details: 10 μM T1-11, n 2
T19 construct: purchased MDS Pharma Services Taiwan

Transporter, Dopamine = molecular target: T20, Transporter, Dopamine (Homo sapiens, UniProt Q01959); assay: Radioligand binding panel (Table S1); details: 10 μM T1-11, n 2
T20 construct: purchased MDS Pharma Services Taiwan

[8] = test system: Platelet-Derived Growth Factor (PDGF); assay: Radioligand binding panel (Table S1); parameters: species or system mouse; details: 10 μM T1-11, n 2
Motilin = molecular target: T21, Motilin (Homo sapiens, UniProt O43193); assay: Radioligand binding panel (Table S1); details: 10 μM T1-11, n 2
T21 construct: purchased MDS Pharma Services Taiwan

Aldosterone = molecular target: T22, Aldosterone (Rattus norvegicus, UniProt P22199); assay: Radioligand binding panel (Table S1); details: 10 μM T1-11, n 2
T22 construct: purchased MDS Pharma Services Taiwan

Calcitonin = molecular target: T23, Calcitonin (Homo sapiens, UniProt P30988); assay: Radioligand binding panel (Table S1); details: 10 μM T1-11, n 2
T23 construct: purchased MDS Pharma Services Taiwan

[9] = n.s. = not significant, no significant binding at 10 µM

T21 sequence (O43193 whole entry): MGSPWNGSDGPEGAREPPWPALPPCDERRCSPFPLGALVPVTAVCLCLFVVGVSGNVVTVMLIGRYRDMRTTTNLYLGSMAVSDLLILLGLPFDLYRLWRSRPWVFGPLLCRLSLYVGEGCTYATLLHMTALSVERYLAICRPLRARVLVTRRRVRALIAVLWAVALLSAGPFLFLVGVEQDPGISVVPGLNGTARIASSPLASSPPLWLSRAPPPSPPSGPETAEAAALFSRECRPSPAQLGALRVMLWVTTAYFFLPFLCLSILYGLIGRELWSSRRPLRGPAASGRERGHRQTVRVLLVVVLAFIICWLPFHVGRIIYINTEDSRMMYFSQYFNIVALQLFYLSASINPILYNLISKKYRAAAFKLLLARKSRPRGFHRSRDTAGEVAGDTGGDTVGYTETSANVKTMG
T1 sequence (Q92847 whole entry): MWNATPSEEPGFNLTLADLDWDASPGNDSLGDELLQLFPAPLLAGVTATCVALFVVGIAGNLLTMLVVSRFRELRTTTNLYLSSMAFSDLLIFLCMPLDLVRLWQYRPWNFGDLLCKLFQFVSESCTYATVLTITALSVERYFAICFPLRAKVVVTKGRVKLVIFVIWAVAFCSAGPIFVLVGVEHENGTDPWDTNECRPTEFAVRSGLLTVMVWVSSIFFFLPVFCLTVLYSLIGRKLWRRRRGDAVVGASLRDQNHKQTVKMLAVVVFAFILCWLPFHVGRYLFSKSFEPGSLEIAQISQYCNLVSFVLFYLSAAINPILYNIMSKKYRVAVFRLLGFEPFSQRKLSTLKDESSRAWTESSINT
T14 sequence (P21731 whole entry): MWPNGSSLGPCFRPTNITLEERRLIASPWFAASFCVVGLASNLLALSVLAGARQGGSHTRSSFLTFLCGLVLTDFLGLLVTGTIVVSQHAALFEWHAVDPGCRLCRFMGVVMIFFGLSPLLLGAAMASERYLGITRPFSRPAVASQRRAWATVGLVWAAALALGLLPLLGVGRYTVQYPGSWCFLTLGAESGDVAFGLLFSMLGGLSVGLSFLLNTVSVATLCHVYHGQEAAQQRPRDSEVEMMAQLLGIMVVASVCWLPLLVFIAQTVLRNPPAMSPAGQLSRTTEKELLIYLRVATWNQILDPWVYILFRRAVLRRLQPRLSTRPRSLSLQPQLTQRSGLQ
T8 sequence (O70528 whole entry): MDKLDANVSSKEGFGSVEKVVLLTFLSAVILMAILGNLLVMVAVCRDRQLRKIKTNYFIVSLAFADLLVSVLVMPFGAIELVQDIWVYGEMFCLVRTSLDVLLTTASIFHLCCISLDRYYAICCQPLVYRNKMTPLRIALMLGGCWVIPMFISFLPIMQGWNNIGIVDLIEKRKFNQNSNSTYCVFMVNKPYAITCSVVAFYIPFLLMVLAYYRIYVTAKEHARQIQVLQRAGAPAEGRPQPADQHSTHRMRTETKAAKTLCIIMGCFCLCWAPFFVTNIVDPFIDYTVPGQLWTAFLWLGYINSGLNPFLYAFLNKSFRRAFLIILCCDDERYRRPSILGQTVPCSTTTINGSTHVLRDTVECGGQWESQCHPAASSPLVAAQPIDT
T23 sequence (P30988 25-474): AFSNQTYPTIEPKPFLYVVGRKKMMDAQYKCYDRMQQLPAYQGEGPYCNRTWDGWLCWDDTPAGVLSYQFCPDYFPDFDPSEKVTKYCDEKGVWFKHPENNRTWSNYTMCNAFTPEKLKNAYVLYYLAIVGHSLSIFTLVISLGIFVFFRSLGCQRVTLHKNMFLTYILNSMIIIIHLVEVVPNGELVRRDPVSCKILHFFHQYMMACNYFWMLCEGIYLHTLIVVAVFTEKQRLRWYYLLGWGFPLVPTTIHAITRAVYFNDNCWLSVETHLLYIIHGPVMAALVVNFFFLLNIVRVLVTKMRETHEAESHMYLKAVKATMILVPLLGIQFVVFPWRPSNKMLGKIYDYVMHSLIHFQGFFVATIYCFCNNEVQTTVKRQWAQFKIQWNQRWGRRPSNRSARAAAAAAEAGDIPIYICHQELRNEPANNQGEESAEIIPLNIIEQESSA
T7 sequence (P41143 whole entry): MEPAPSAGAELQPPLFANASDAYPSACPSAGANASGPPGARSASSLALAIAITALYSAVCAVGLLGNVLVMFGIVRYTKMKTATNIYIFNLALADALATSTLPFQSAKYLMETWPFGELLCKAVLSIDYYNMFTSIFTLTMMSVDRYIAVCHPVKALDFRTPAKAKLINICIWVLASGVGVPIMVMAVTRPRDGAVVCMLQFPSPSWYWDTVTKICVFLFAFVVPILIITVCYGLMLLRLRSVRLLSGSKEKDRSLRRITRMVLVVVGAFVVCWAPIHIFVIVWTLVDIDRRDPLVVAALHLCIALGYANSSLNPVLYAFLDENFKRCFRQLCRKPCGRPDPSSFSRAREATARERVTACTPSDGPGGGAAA
T18 sequence (P25025 whole entry): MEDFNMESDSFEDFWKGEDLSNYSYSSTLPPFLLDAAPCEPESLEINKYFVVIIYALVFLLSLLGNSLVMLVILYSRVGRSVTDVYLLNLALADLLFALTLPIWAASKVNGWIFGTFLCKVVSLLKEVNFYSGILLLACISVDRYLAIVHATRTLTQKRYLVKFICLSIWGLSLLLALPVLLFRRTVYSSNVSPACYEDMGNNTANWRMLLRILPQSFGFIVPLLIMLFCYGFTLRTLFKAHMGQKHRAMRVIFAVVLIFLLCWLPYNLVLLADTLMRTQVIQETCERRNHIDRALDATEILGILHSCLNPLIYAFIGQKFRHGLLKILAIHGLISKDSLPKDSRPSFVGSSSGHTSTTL
T19 sequence (P43140 whole entry): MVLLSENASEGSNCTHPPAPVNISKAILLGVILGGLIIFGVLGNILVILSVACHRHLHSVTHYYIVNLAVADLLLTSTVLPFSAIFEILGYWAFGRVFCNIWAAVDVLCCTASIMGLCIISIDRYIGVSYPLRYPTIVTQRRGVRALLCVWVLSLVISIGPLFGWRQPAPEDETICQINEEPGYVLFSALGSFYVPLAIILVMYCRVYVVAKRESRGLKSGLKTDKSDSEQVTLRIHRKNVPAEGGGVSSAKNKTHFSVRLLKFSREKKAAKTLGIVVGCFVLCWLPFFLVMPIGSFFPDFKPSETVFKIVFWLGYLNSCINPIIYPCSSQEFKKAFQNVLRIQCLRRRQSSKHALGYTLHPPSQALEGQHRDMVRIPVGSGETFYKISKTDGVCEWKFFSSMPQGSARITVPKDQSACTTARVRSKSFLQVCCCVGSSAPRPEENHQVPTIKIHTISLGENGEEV
T4 sequence (P21917 with tags, fused parts or gaps DEL265-296): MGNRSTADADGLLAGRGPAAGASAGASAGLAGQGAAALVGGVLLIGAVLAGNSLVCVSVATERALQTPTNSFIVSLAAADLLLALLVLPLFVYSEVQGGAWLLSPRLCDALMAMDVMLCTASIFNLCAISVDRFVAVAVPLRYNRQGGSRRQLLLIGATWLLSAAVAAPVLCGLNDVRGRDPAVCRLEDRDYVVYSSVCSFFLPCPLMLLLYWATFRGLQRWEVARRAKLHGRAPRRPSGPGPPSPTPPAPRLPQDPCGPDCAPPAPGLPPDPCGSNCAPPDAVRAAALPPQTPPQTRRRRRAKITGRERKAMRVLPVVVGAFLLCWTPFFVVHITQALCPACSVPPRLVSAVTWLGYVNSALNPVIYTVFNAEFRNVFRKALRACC
T10 sequence (P08887 20-468): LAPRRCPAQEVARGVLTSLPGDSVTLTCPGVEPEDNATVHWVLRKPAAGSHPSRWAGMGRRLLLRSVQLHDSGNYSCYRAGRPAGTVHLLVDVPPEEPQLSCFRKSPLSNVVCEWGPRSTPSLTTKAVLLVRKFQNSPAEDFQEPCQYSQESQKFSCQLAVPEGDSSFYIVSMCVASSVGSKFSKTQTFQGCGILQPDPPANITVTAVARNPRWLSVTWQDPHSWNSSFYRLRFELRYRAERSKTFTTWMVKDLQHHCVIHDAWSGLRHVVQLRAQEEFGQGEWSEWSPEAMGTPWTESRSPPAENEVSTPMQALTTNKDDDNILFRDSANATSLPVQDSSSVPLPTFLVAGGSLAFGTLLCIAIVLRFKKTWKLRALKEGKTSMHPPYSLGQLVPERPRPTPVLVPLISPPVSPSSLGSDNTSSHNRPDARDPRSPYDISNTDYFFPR
T16 sequence (P15823 whole entry): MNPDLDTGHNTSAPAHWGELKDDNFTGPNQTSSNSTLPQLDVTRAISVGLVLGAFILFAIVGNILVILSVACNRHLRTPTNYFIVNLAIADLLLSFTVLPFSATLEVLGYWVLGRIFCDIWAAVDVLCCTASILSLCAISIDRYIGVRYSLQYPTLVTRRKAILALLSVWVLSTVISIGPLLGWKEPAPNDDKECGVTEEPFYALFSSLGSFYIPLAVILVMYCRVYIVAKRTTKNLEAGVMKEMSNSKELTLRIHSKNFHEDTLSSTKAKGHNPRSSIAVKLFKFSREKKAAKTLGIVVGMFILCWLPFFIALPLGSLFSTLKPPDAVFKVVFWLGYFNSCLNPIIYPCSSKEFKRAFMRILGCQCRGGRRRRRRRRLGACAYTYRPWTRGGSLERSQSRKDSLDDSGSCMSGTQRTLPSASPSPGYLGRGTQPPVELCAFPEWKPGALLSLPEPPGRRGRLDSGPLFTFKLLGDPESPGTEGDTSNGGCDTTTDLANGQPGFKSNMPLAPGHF
T9 sequence (P13945 whole entry): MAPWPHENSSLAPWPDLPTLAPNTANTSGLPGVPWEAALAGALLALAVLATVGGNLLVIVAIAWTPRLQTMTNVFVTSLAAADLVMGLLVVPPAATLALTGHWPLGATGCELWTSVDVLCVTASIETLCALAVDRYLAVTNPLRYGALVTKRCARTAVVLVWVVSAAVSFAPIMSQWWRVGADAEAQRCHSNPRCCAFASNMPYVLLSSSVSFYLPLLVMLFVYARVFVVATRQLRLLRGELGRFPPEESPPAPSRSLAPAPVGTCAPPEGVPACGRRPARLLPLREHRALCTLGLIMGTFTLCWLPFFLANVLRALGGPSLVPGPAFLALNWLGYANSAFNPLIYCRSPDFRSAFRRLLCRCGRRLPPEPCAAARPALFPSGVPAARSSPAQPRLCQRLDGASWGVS

Structure (SMILES): OC[C@H]1O[C@@H](n2cnc3c(NCc4ccc(O)cc4)ncnc32)[C@H](O)[C@@H]1O [T1-11, N ^6-(4-hydroxybenzyl)adenine riboside]
- inhibition at 10 µM [1]: -4%
- inhibition at 10 µM [2]: 3%
- inhibition at 10 µM (Melatonin MT1): -4%
- inhibition at 10 µM (Dopamine D4.2): 3%
- inhibition at 10 µM (Vanilloid): 8%
- inhibition at 10 µM (Estrogen ERα): 32%
- inhibition at 10 µM (Opiate δ (OP1, DOP)): 19%
- inhibition at 10 µM [3]: 1%
- % Inhibition (Purinergic P 2X): 11%
- % Inhibition [4]: 10%
- inhibition at 10 µM (Adrenergic β 3): -1%
- Cortical BDNF (BDNF): contained more cortical BDNF than R6/2 mice that received no treatment
- inhibition at 10 µM (Interleukin IL-6): -3%
- inhibition at 10 µM (Bombesin BB2): 3%
- % Inhibition [5]: 2%
- inhibition at 10 µM (hERG potassium channel): -2%
- % Inhibition (Phosphodiesterase PDE1): 17%
- inhibition at 10 µM (Cyclooxygenase COX-2): 0%
- inhibition at 10 µM [6]: 1%
- inhibition at 10 µM (Calcium Channel N-Type): 1%
- inhibition at 10 µM (Adrenergic α 1B): 3%
- % Inhibition [7]: -3%
- inhibition at 10 µM (A1 adenosine receptor; 10 μM T1-11, n 2): 23%
- IC50 (A1 adenosine receptor; [9]): n.s.
- Ki (A1 adenosine receptor; [9]): n.s.
- inhibition at 10 µM (Chemokine CXCR2 (IL-8RB)): 0%
- % Inhibition (Rolipram): -6%
- inhibition at 10 µM (Adrenergic α 1A): -14%
- inhibition at 10 µM (Transporter, Dopamine): -6%
- % Inhibition [8]: -4%
- inhibition at 10 µM (Motilin): -2%
- inhibition at 10 µM (Aldosterone): 2%
- inhibition at 10 µM (Calcitonin): 15%
